Laboratory results published in KR20170021349A, “다양한 질병의 치료를 위한 jnk 신호 전달 경로의 세포 투과성 펩타이드 억제자의 새로운 용도” (자이겐 인플라메이션 리미티드, priority 2014, dated 2017).
pEC50: −log10 of the molar value.

Columns and labels:
TC-3 cells = assay: Cellular import of fluorescein-labelled TAT and TAT-IB1(s) peptides; type: cell-based
[1] = system: recombinant JNK1, JNK2, JNK3; assay: Solid-phase kinase assay: JNK-mediated phosphorylation of c-Jun, ATF2, Elk1; type: biochemical; conditions: GST-Jun (aa 1-73), 0-250 μM
[2] = system: endogenous JNK in HepG2 cells; assay: AlphaScreen kinase assay of endogenous IL-1-induced JNK activity; type: cell-based; conditions: IL-1-dependent JNK activity, Fig. 3d
[3] = system: Varicella Zoster Virus (VZV); assay: Plaque reduction assay against VZV in HFFs; type: cell-based; conditions: for VZV spread (pfu) ± SD: 24 h
C57BL/6 mice = assay: Bleomycin-induced lung fibrosis, day 10; type: in vivo, mouse; conditions: for lymphocyte recruitment and total cell number in BAL: 3x in 10 days; for decrease of inflammatory cell accumulation, fibrotic areas, loss of lung architecture (histology): day 10
hAPP Tg mice = assay: hAPP transgenic mouse model of Alzheimer's disease; type: in vivo
[4] = Phase I single ascending i.v. dose study, healthy male volunteers; type: in vivo, human
porcine islets = assay: Porcine islet isolation; type: cell-based, pig
Brown Norway rats = assay: Argon laser-induced choroidal neovascularization (ChNV), intravitreal; type: in vivo, rat
Wistar rats = assay: Puromycin aminonucleoside (PAN)-induced nephropathy, 56 days; type: in vivo, rat

NH2-DQSRPVQPFLNLTTPRKPRPPRRRQRRKKRG-COOH (H-DQSRPVQPFLNLTTPRKPRPPRRRQRRKKRG-OH; also: D-amino acids (positions not given here)) [XG-102]
time to enter cells (TC-3 cells; 1 μM labelled peptide): < 5 분 | stability inside cells (TC-3 cells; time course): 극도로 안정하다 | fold less efficient than L-TAT-IB1(s) in decreasing JNK-mediated c-Jun phosphorylation [1]: 10-20 배 | inhibition of JNK activity compared with L-JNKI [2]: 보다 효과적으로 JNK 활성을 억제한다 | VZV spread (pfu) ± SD ([3]; 0.5 μM): 260 ± 53 pfu | VZV spread (pfu) ± SD ([3]; 1.0 μM): 212 ± 48 pfu | VZV spread (pfu) ± SD ([3]; 2.0 μM): 312 ± 79 pfu | pEC50 ([3]; interpolated from graph, read-out: EC50 (50% reduction of VZV yield)): ~6.52 | lymphocyte recruitment and total cell number in BAL (C57BL/6 mice; 0.001 mg/kg s.c.): 현저하게 감소시켰다 | decrease of inflammatory cell accumulation, fibrotic areas, loss of lung architecture (histology) (C57BL/6 mice; 0.001 mg/kg): 관찰되었으나 | lymphocyte recruitment and total cell number in BAL (C57BL/6 mice; 0.1 mg/kg s.c.): 효과가 없었다 | decrease of inflammatory cell accumulation, fibrotic areas, loss of lung architecture (histology) (C57BL/6 mice; 0.1 mg/kg): 관찰되지 않았다 | spatial learning in Morris Water Maze (hAPP Tg mice; 0.1 mg/kg every 2 wk or 10 mg/kg every 3 wk s.c., 4 months): 크게 영향을 받지 않았다 | brain Aβ1-42 level, Triton X-100 fraction (hAPP Tg mice; 0.1 mg/kg, p<0.05 vs vehicle): 현저한 감소를 나타내었다 | cortical 6E10 IR plaque load (hAPP Tg mice; 10 mg/kg vs vehicle): 비히클에 비해 증가하였으나 | brain homogenate Aβ1-40 levels (hAPP Tg mice; ELISA, 4 fractions): 영향을 미치지 않았다 | CSF Aβ1-40 and Aβ1-42 levels (hAPP Tg mice; p<0.01 at 10 mg/kg, <0.05 at 0.1 mg/kg): 현저하게 감소되었다 | number and area % of hippocampal ThioflavinS-positive plaques (hAPP Tg mice; p<0.05 at 10 mg/kg, p<0.01 at 0.1 mg/kg): 음성적인 투여량 의존적 감소를 유도함 | time at which plasma concentration fell below LLOQ ([4]; 10 μg/kg i.v. infusion): ≤ 2 시간 | time at which plasma concentration fell below LLOQ ([4]; 40 μg/kg, after start of infusion): 3 시간 | time at which plasma concentration fell below LLOQ ([4]; 80 μg/kg, after start of infusion): ≤ 7 시간 | inter-subject variability of PK parameters (CV% of geometric mean) ([4]; 80 μg/kg, except MRT): 29-44% | increase of AUC0-last with dose ([4]; 10-80 μg/kg): 선형 이상의 비율로 증가했다 | inter-subject variability of PK parameters (CV% of geometric mean) ([4]; 10 and 40 μg/kg, most parameters): 15-30% | increase of Cmax with dose ([4]; 40 to 80 μg/kg): 선형 이상의 비율로 증가하는 것으로 나타났다 | safety and tolerability ([4]; single i.v. 10, 40 or 80 μg/kg): 안전하고 내약성이 우수했다 | isolations with OCR/DNA above cut-off, successfully transplanted into NHPs (porcine islets): 6/6 | relative c-fos gene expression (porcine islets; 10 μM): 감소시키고 | JNK activation during isolation (porcine islets; 10 μM in pancreas and isolation solutions): 차단하고 | viability of freshly isolated islets (OCR/DNA, ATP/protein) (porcine islets; 10 μM vs paired untreated control): 통계적으로 현저하고 중요한 영향을 가짐 | mean score of fluorescein leakage (mean ± SD) (Brown Norway rats; 300 μg/ml IVT D0,D7, day 14): 2.4 ± 0.9 | mean score of fluorescein leakage (mean ± SD) (Brown Norway rats; 300 μg/ml IVT D0,D7, day 21): 2.4 ± 0.8 | % spots with score 0 (Brown Norway rats; 300 μg/ml, day 14): 7% | % spots with score 1 (Brown Norway rats; 300 μg/ml, day 14): 9% | % spots with score 2 (Brown Norway rats; 300 μg/ml, day 14): 18% | % spots with score 3 (Brown Norway rats; 300 μg/ml, day 14): 66% | reduction % vs vehicle (Brown Norway rats; 300 μg/ml, day 14, p<0.05): 17% | % spots with score 0 (Brown Norway rats; 300 μg/ml, day 21): 5% | % spots with score 1 (Brown Norway rats; 300 μg/ml, day 21): 9% | % spots with score 2 (Brown Norway rats; 300 μg/ml, day 21): 32% | % spots with score 3 (Brown Norway rats; 300 μg/ml, day 21): 55% | reduction % vs vehicle (Brown Norway rats; 300 μg/ml, day 21): -9% | mean score of fluorescein leakage (mean ± SD) (Brown Norway rats; 3000 μg/ml IVT D0,D7, day 14): 1.7 ± 0.7 | mean score of fluorescein leakage (mean ± SD) (Brown Norway rats; 3000 μg/ml IVT D0,D7, day 21): 2.3 ± 0.7 | % spots with score 0 (Brown Norway rats; 3000 μg/ml, day 14): 0% | % spots with score 1 (Brown Norway rats; 3000 μg/ml, day 14): 44% | % spots with score 2 (Brown Norway rats; 3000 μg/ml, day 14): 44% | % spots with score 3 (Brown Norway rats; 3000 μg/ml, day 14): 12% | reduction % vs vehicle (Brown Norway rats; 3000 μg/ml, day 14, p<0.001): 41% | % spots with score 0 (Brown Norway rats; 3000 μg/ml, day 21): 0% | % spots with score 1 (Brown Norway rats; 3000 μg/ml, day 21): 14% | % spots with score 2 (Brown Norway rats; 3000 μg/ml, day 21): 47% | % spots with score 3 (Brown Norway rats; 3000 μg/ml, day 21): 40% | reduction % vs vehicle (Brown Norway rats; 3000 μg/ml, day 21): -5% | general behaviour of animals (Brown Norway rats; both doses IVT): 변화되지 않는다 | effect on PAN-induced glomerulosclerosis (Wistar rats; 1 mg/kg, 7 weekly i.v. injections): 효과가 없었다 | effect on PAN-induced glomerulosclerosis (Wistar rats; 4 mg/kg, 4 i.v. injections from day 21): 강한 효과를 초래하였다 | PAN-induced glomerulosclerosis (Wistar rats; 7 weekly i.v. injections, 2 and 4 mg/kg): 용량 의존적으로 현저하게 감소시키는 | decrease in plasma LDL (Wistar rats; especially 4 mg/kg groups): 현저하는 않더라도 관찰되었다 | effect on body weight vs PAN/saline (Wistar rats; rat, in vivo): 관찰되지 않았다
